Results on 16 molecules are retold here after patent US8735398B2 (Bristol-Myers Squibb Company, priority 2009, dated 2014).

The assay deals with HCV 1b genotype. The assay can be described thus: HCV replicon assay (HCV-neo replicon cells, wild-type). The assay is classed as cell-based, Hepatitis C virus. The note with it: Hepatitis C virus, HCV 1b genotype replicon. An outline of the steps:
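Inhibition was tested in replicon-bearing cells, both wild-type HCV-neo and lines with NS5A resistance substitutions, using the O'Boyle et al. 2005 replicon method or luciferase-reporter formats.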

Setting [1] is: class symbol, read-out: EC50 Range against HCV 1b.

Structures are written as SMILES. pEC50: −log10 of the molar value. Where two headings read alike, the source gives them in different places.

Turning to `CN(C)[C@@H](C(=O)N1CCC[C@H]1C(=O)N1CCC[C@H]1C(=O)Nc1ccc(-c2cnc(-c3ccc(NC(=O)[C@@H]4CCCN4C(=O)[C@@H]4CCCN4C(=O)[C@@H](c4ccccc4)N(C)C)cc3)o2)cc1)c1ccccc1` [Example D-38, (2S,2′S)-N,N′-(1,3-oxazole-2,5-diyldi-4,1-phenylene)bis(1-(((2S)-1-((2R)-2-(dimethylamino)-2-phenylacetyl)-2-pyrrolidinyl)carbonyl)-2-pyrrolidinecarboxamide)], the pEC50 (usually −log10 of the EC50, conventionally taken in molar units) reads like this: under setting [1], 6.00 to 7.00; (read-out: EC50 1b) 6.96.
For the molecule `CN(C)[C@@H](C(=O)N1CCC[C@@H]1C(=O)N1CCC[C@H]1C(=O)Nc1ccc(-c2cnc(-c3ccc(NC(=O)[C@@H]4CCCN4C(=O)[C@H]4CCCN4C(=O)[C@@H](c4ccccc4)N(C)C)cc3)o2)cc1)c1ccccc1` [Example D-39, (2S,2′S)-N,N′-(1,3-oxazole-2,5-diyldi-4,1-phenylene)bis(1-(((2R)-1-((2R)-2-(dimethylamino)-2-phenylacetyl)-2-pyrrolidinyl)carbonyl)-2-pyrrolidinecarboxamide)], the pEC50 under setting [1] is 5.00 to 6.00.
For `CN(C)[C@@H](C(=O)N1[C@H](C(=O)N2CCC[C@H]2C(=O)Nc2ccc(-c3cnc(-c4ccc(NC(=O)[C@@H]5CCCN5C(=O)[C@@H]5C[C@@H]6C[C@@H]6N5C(=O)[C@@H](c5ccccc5)N(C)C)cc4)o3)cc2)C[C@@H]2C[C@@H]21)c1ccccc1` [Example D-40, (2S,2′S)-N,N′-(1,3-oxazole-2,5-diyldi-4,1-phenylene)bis(1-(((1S,3S,5S)-2-((2R)-2-(dimethylamino)-2-phenylacetyl)-2-azabicyclo[3.1.0]hex-3-yl)carbonyl)-2-pyrrolidinecarboxamide)], the pEC50 under setting [1] was 6.00 to 7.00.
Still for that read-out and setting: the value for `CN(C)[C@@H](C(=O)N1CCCC1(C)C(=O)N1CCC[C@H]1C(=O)Nc1ccc(-c2cnc(-c3ccc(NC(=O)[C@@H]4CCCN4C(=O)C4(C)CCCN4C(=O)[C@@H](c4ccccc4)N(C)C)cc3)o2)cc1)c1ccccc1` (stereo partly drawn) [Example D-41, (2S,2′S)-N,N′-(1,3-oxazole-2,5-diyldi-4,1-phenylene)bis(1-((1-((2R)-2-(dimethylamino)-2-phenylacetyl)-2-methyl-2-pyrrolidinyl)carbonyl)-2-pyrrolidinecarboxamide)] was 6.00 to 7.00; that for `CC(=O)N1CCC[C@H]1C(=O)Nc1ccc(-c2sc(C)nc2-c2ccc(NC(=O)[C@@H]3CCCN3C(=O)Cc3ccccc3)cc2)cc1` [Example D-42, (2S)-1-acetyl-N-(4-(2-methyl-4-(4-((((2S)-1-(phenylacetyl)-2-pyrrolidinyl)carbonyl)amino)phenyl)-1,3-thiazol-5-yl)phenyl)-2-pyrrolidinecarboxamide] was 5.00 to 6.00; that for `CC(=O)N1CCC[C@H]1C(=O)Nc1ccc(-c2nc(C)sc2-c2ccc(NC(=O)[C@@H]3CCCN3C(C)=O)cc2)cc1` [Example D-43, (2S,2′S)-N,N′-((2-methyl-1,3-thiazole-4,5-diyl)di-4,1-phenylene)bis(1-acetyl-2-pyrrolidinecarboxamide)] was 6.00 to 7.00.
As for `Cc1nc(-c2ccc(NC(=O)[C@@H]3CCCN3C(=O)Cc3ccccc3)cc2)c(-c2ccc(NC(=O)[C@@H]3CCCN3C(=O)Cc3ccccc3)cc2)s1` [Example D-44, (2S,2′S)-N,N′-((2-methyl-1,3-thiazole-4,5-diyl)di-4,1-phenylene)bis(1-(phenylacetyl)-2-pyrrolidinecarboxamide)], under setting [1], the pEC50 is 7.00 to 8.34.
On the same count and under the same terms, the result for `CC(=O)N1CCC[C@H]1C(=O)Nc1ccc(-c2nc(-c3ccc(NC(=O)[C@@H]4CCCN4C(=O)Cc4ccccc4)cc3)cs2)cc1` [Example D-45, (2S)-1-acetyl-N-(4-(4-(4-((((2S)-1-(phenylacetyl)-2-pyrrolidinyl)carbonyl)amino)phenyl)-1,3-thiazol-2-yl)phenyl)-2-pyrrolidinecarboxamide] reads 6.00 to 7.00; that for `CC(=O)N1CCC[C@H]1C(=O)Nc1ccc(-c2nc(-c3ccc(NC(=O)C4CC(=O)N(CCc5cccs5)C4)cc3)cs2)cc1` (stereo partly drawn) [Example D-46, (2S)-1-acetyl-N-[4-[4-[4-[[[5-oxo-1-[2-(2-thienyl)ethyl]-3-pyrrolidinyl]carbonyl]amino]phenyl]-2-thiazolyl]phenyl]-2-pyrrolidinecarboxamide], 5.00 to 6.00.
The same measure, in the same setting: the value for `CC(=O)N1CCC[C@H]1C(=O)Nc1ccc(-c2nc(-c3ccc(NC(=O)[C@@H]4C=CCN4C(=O)c4cccs4)cc3)cs2)cc1` [Example D-47, (2S)-N-[4-[2-[4-[[[(2S)-1-acetyl-2-pyrrolidinyl]carbonyl]amino]phenyl]-4-thiazolyl]phenyl]-2,5-dihydro-1-(2-thienylcarbonyl)-1H-pyrrole-2-carboxamide] was 5.00 to 6.00; that for `CC(=O)N1CCC[C@H]1C(=O)Nc1ccc(-c2nc(-c3ccc(NC(=O)[C@@H]4C=CCN4C(=O)Cc4cccs4)cc3)cs2)cc1` [Example D-48, (2S)-N-[4-[2-[4-[[[(2S)-1-acetyl-2-pyrrolidinyl]carbonyl]amino]phenyl]-4-thiazolyl]phenyl]-2,5-dihydro-1-(2-thienylacetyl)-1H-pyrrole-2-carboxamide] was 6.00 to 7.00.
With `CC(=O)N1CCC[C@H]1C(=O)Nc1ccc(-c2nc(-c3ccc(NC(=O)[C@@H]4C=CCN4C(=O)Cc4ccccc4)cc3)cs2)cc1` [Example D-49, (2S)-N-[4-[2-[4-[[[(2S)-1-acetyl-2-pyrrolidinyl]carbonyl]amino]phenyl]-4-thiazolyl]phenyl]-2,5-dihydro-1-(phenylacetyl)-1H-pyrrole-2-carboxamide], the negative logarithm of the EC50 (pEC50) under setting [1] is 5.00 to 6.00.
Still for that read-out and setting: the value for `CC(=O)N1CCC[C@H]1C(=O)Nc1ccc(-c2nc(-c3ccc(NC(=O)[C@@H]4C=CCN4C(=O)c4ccno4)cc3)cs2)cc1` [Example D-50, (2S)-N-[4-[2-[4-[[[(2S)-1-acetyl-2-pyrrolidinyl]carbonyl]amino]phenyl]-4-thiazolyl]phenyl]-2,5-dihydro-1-(5-isoxazolylcarbonyl)-1H-pyrrole-2-carboxamide] was 6.00 to 7.00.
As to `CC(=O)N1CCC[C@H]1C(=O)Nc1ccc(-c2nc(-c3ccc(NC(=O)[C@@H]4C=CCN4C(=O)[C@H]4CCCO4)cc3)cs2)cc1` [Example D-51, (2S)-N-[4-[2-[4-[[[(2S)-1-acetyl-2-pyrrolidinyl]carbonyl]amino]phenyl]-4-thiazolyl]phenyl]-2,5-dihydro-1-[[(2R)-tetrahydro-2-furanyl]carbonyl]-1H-pyrrole-2-carboxamide], the pEC50 under setting [1] is 5.00 to 6.00 and the pEC50 (read-out: EC50 1b) is 5.46.
Consider `CC(=O)N1CCC[C@H]1C(=O)Nc1ccc(-c2nc(-c3ccc(NC(=O)[C@@H]4C=CCN4C(=O)[C@@H]4CCCO4)cc3)cs2)cc1` [Example D-52, (2S)-N-[4-[2-[4-[[[(2S)-1-acetyl-2-pyrrolidinyl]carbonyl]amino]phenyl]-4-thiazolyl]phenyl]-2,5-dihydro-1-[[(2S)-tetrahydro-2-furanyl]carbonyl]-1H-pyrrole-2-carboxamide], for which the pEC50 under setting [1] is 5.00 to 6.00.
On to `CC(=O)N1CCC[C@H]1C(=O)Nc1ccc(-c2nc(-c3ccc(NC(=O)[C@@H]4C=CCN4C(=O)c4ccccc4)cc3)cs2)cc1` [Example D-53, (2S)-N-[4-[2-[4-[[[(2S)-1-acetyl-2-pyrrolidinyl]carbonyl]amino]phenyl]-4-thiazolyl]phenyl]-1-benzoyl-2,5-dihydro-1H-pyrrole-2-carboxamide], for which the pEC50 was 5.00 to 6.00 under setting [1] and 5.95 (read-out: EC50 1b).
